According to ChEMBL document CHEMBL1125631, “Adenosine deaminase inhibitors: synthesis and structure-activity relationships of imidazole analogues of erythro-9-(2-hydroxy-3-nonyl)adenine” (J Med Chem, 1991):

Key:
Adenosine deaminase [1] = target: T1, Adenosine deaminase (Bos taurus, UniProt P56658); assay: Inhibition of calf intestinal adenosine deaminase
T1 sequence (P56658 whole entry): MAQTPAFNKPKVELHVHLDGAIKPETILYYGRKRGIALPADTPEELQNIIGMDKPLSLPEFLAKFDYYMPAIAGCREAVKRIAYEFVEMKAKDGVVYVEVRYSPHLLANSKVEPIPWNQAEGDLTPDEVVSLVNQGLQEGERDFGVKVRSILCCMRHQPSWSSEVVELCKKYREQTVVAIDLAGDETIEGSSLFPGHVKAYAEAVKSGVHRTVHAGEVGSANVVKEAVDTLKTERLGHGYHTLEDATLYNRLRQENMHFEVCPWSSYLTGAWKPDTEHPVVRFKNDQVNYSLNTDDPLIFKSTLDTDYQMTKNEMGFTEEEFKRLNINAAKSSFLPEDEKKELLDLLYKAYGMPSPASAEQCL

Adenosine deaminase [2] = target: T1, Adenosine deaminase; assay: Inhibition constant against calf intestinal adenosine deaminase; Not active

| Structure (SMILES) | Ki (Adenosine deaminase [1]) [µM] | Ki (Adenosine deaminase [2]) |
| --- | --- | --- |
| Nc1cccc2c1ncn2C1O[C@H](CO)[C@@H](O)[C@H]1O (stereo partly specified) | 110 |  |
| NC(=O)c1ccn(C2O[C@H](CO)[C@@H](O)[C@H]2O)c1 (stereo partly specified) |  | Not Active |
| CCCCCCC(C(C)O)n1cnc(C(N)=O)c1 (stereo unspecified) | 0.0353 |  |
| CCCCCCC(C(C)O)n1cnc(C(=N)N)c1 (stereo unspecified) | 2.56 |  |
| CCCCCCC(C(C)O)n1cnc(C(=O)NC2CCCC2)c1 (stereo unspecified) | 41.1 |  |
| CCCCCCC(C(C)O)n1cnc(C(=O)NC[C@@H](C)O)c1 (stereo partly specified) | 32.1 |  |
| N=C(N)c1ncn(C2O[C@H](CO)[C@@H](O)[C@H]2O)c1N (stereo partly specified) |  | Not Active |
| CCCCCCC(C(C)O)n1cnc(C(=O)NC[C@H](C)O)c1 (stereo partly specified) | 6.9 |  |
| Nc1ccnc2c1ccn2C1O[C@H](CO)[C@@H](O)[C@H]1O (stereo partly specified) |  | Not Active |
| CCCCCCC(C(C)O)n1cnc(C(=O)OCC)c1N (stereo unspecified) | 347 |  |
| CCCCCCC(C(C)O)n1cnc(C(=O)NCC)c1 (stereo unspecified) | 17.9 |  |
| CCCCCCC(C(C)O)n1cnc(CO)c1 (stereo unspecified) | 2.52 |  |
| Nc1ncnc2c1ccn2[C@@H]1O[C@H](CO)[C@@H](O)[C@H]1O [TUBERCIDIN] |  | Not Active |
| CCCCCCC(C(C)O)n1cnc(C(=N)S)c1 (stereo unspecified) | 0.0471 |  |
| CCCCCCC(C(C)O)n1cnc(C(=O)NCCC)c1 (stereo unspecified) | 16 |  |
| CCCCCCC(C(C)O)n1cnc(C(=O)N(C)C)c1 (stereo unspecified) | 36.3 |  |
| CCCCCCC(C(C)O)n1cnc(C(N)=O)c1N (stereo unspecified) | 1.04 |  |
| CCCCCCC(C(C)O)n1cnc(CN)c1 (stereo unspecified) | 4.02 |  |
| CCCCCCC(C(C)O)n1cnc(C(N)=O)c1Cl (stereo unspecified) | 0.126 |  |
| CCCCCCC(C(C)O)n1cnc(C(=O)O)c1 (stereo unspecified) | 39 |  |
| CCCCCCC(C(C)O)n1cnc(C(=N)N)c1N (stereo unspecified) | 10.6 |  |
| N=C(N)c1cn(C2O[C@H](CO)[C@@H](O)[C@H]2O)cn1 (stereo partly specified) |  | Not Active |
| CCCCCCC(C(C)O)n1cnc(C(=O)NC)c1 (stereo unspecified) | 0.368 |  |
| CCCCCCC(C(C)O)n1cnc(C(=O)OCC)c1 (stereo unspecified) | 66 |  |
| CCCCCCC(C(C)O)n1cnc(C(=O)NCc2ccccc2)c1 (stereo unspecified) | 86 |  |
| CCCCCCC(C(C)O)n1cnc(C(=O)NCCO)c1 (stereo unspecified) | 0.93 |  |
